In patent US6664231B1, “Anti-fungal peptides” (priority 1993, dated 2003):
≈ marks a conversion by molar mass, not a printed value. Where “and” joins values, the source holds several entries; their conditions need not be identical. Equal entries are not always repeated. Where two headings read alike, the source gives them in different places.

How the values were obtained:
[1] = test system: C. albicans (CA-1, Strain SLU-1); experiment: Radial diffusion assay; type: cell-based, Candida albicans; details: pmoles of peptide added to well to achieve a 30 mm^2 zone, PROBIT analysis, crude or purified (P′) peptide
Summary of the method: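 Peptides, serially diluted 2-fold in D-PBS (top ~1 mg/mL), diffused 3 h at 37° C into pH 7.4 phosphate-buffered agarose seeded with 1×10^6 CFU/mL yeast, before overnight growth under a 6% Sabouraud overlayer. Net inhibition zones measured after Coomassie staining; PROBIT fit of log pmol vs area gave pmol for 30 mm^2.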

Candida albicans = experiment: Radial diffusion assay, Candida species (Table 2); type: cell-based; details: higher effective concentration of agarose than Table 1
Candida glabrata = experiment: Radial diffusion assay, Candida species (Table 2); type: cell-based
Procedure: (§1) The anti-fungal activity of Domain III derived peptides was also evaluated in vitro against a variety of fungal species, including Candida glabrata, Candida krusei, Candida lusitaniae, Candida parapsilosis, and Candida tropicalis. For these experiments, one colony of each of the above-listed Candida strains was picked from a Sabouraud's dextrose agar (SDA) plate and inoculated into 5 mL of Sabouraud's dextrose broth (SDB, 2% dextrose and 1% neopeptone) or, for C. krusei, Yeast Malt broth (YM, Becton Dickenson, Cockeysville, Md., cat no. BL 11405) in 12 mL polyproplyene snap-cap tubes. The tube cultures were incubated overnight with shaking at 37° C.
(§2) Cultures were harvested when the OD570 of a 1:10 dilution was greater than or equal to the following values: 0.083 for Candida glabrata, 0.154 for Candida krusei, 0.117 for Candida lusitaniae, 0.076 for Candida parapsilosis, and 0.192 for Candida tropicalis. Cells were centrifuged for 7 minutes in an Eppendorf microfuge at 3,000 rpm (about 1,500 g). The cell pellet was resuspended in 1 mL PBS and approximately 1×10^7 cells in about 0.5 mL were added to 10 mL of cooled underlay agar (3% SBD, 1% agarose, 0.02% Tween 20, 10 mM sodium phosphate buffer, pH 7.4 at about 45° C.). The suspension was poured into square petri plates, allowed to solidify, and wells cut as described above.
(§3) Peptides were two-fold serially diluted with D-PBS from about 20 μL of a starting concentration of approximately 1 mg/mL. Five μL of peptide dilution were added per well and allowed to diffuse for at least about 30 minutes into the agar at […] (to allow complete diffusion). Then 10 mL of molten overlayer agarose (6% SDB, 1% agarose, 10 mM sodium phosphate buffer, pH 7.4 at about 45° C.) were added and the plates were incubated inverted at […] overnight. Plates were stained with a dilute Coomassie solution, inhibition zones were measured with calipers and net areas were calculated, then converted to pmole values by PROBIT analysis.

Candida krusei = experiment: Radial diffusion assay, Candida species (Table 2); type: cell-based
Procedure: as §1, §2, §3

Candida lusitaniae = experiment: Radial diffusion assay, Candida species (Table 2); type: cell-based
Procedure: as §1, §2, §3

Candida parapsilosis = experiment: Radial diffusion assay, Candida species (Table 2); type: cell-based
Procedure: as §1, §2, §3

Candida tropicalis = experiment: Radial diffusion assay, Candida species (Table 2); type: cell-based
Procedure: as §1, §2, §3

[2] = test system: Candida albicans SLU-1 strain; experiment: Serum stability, anti-fungal activity after serum incubation by radial diffusion bioassay; type: in vitro ADME, rat or human serum
Summary of the method: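 Anti-fungal activity against C. albicans SLU-1 was measured by radial diffusion on peptides recovered from serum. Recovery: 1 mg/mL peptide in equal volume of rat or human serum at 37° C, sampled at 0–4 h, C-18 extraction, HPLC, sequencing and ESI/MS.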

[3] = test system: polyene-resistant (ATCC 38247), 5-fluorocytosine-resistant (ATCC 44373), azole-resistant (ATCC 62342), ketoconazole-resistant (ATCC 64124) C. albicans; experiment: Fungicidal activity on commercially-available drug-resistant Candida strains; type: cell-based, Candida albicans; details: ATCC 38247, 44373, 62342, 64124
Procedure: Further experiments were performed to determine the anti-fungal activity of Domain III derived peptides on commercially-available strains of Candida considered resistant to other anti-fungal agents: polyene-resistant C. albicans (ATCC Accession No. 38247), 5-fluorocytosine-resistant C. albicans (ATCC No. 44373), azole-resistant C. albicans (ATCC No. 62342), and ketoconazole-resistant C. albicans (ATCC No. 64124).

[4] = test system: C. albicans (SLU-1 strain); experiment: Survival of mice systemically infected with Candida albicans; type: in vivo, mouse; details: 1.24×10^5 C. albicans i.v.; 3 doses i.v. (Day 0, 2, 4); 10 mg/kg XMP.36, 5 mg/kg XMP.97, 10 mg/kg XMP.102, 1 mg/kg amphotericin B; FIG. 4
Procedure: Groups of 15 male DBA/2J mice at age 6-8 weeks (Jackson Laboratory, Bar Harbor, Me.) were inoculated with 1.24×10^5 C. albicans (SLU-1 strain as described in Example 2) by intravenous injection into the tail vein. Cells were prepared for animal injection as follows. A single colony was selected and used to inoculate a 5 mL tube of Sabouraud dextrose broth. Incubation was at 30° C. with shaking to allow aeration for a period of 15-18 hours. Four mL of the overnight culture were added to 100 mL of fresh Sabouraud dextrose broth (1:25 dilution) and incubated for 4 hours. The 100 mL culture was pelleted at 1,500×g for 5 minutes. Cells were washed twice by adding 20 mL D-PBS, vortexing and re-centrifuging. Cells were collected in one tube and a sample is diluted 1:10 to be measured by OD570 (1 OD unit=3×10^7 CFU/mL). The cells were diluted to the desired dose in D-PBS and kept at 4° C. until used. Doses were confirmed by performing serial ten-fold dilutions and plating 50 μl per dilution on Sabouraud dextrose agar. Colonies were counted the following day after overnight incubation at 37° C. A […] culture yielded approximately 1×10^9 CFU/mL.
Immediately after fungal challenge, the mice were intravenously injected via the tail vein with a 0.1 mL volume of 10 mg/kg XMP.36, 5 mg/kg XMP.97, 10 mg/kg XMP.102, 1 mg/kg amphotericin B (Sigma, St. Louis, Mo.), or phosphate buffered saline (PBS) as a control. Treatment with the same amounts of peptides, amphotericin B or PBS was repeated at Day 2 and Day 4 (except that the second dose of XMP.36 was given at a dose of 5 mg/kg). Mice were monitored twice daily for mortality until termination of the study at Day 28. […] In FIG. 4, the symbol “X” represents survival after treatment with amphotericin B; open squares, treatment with XMP.97; open circles, treatment with XMP.36; open diamonds, treatment with XMP.102; and open triangles, treatment with buffer. Statistical significance was evaluated using the Lifetest Survival Curve analysis. [Lawless, Statistical Models and Methods for Lifetime Data, John Wiley & Sons, New York (1982).] The duration and almost linear decline in survival is analogous to human opportunistic candidiasis.
In additional 3-dose studies, groups of 15 mice were injected with a fungal challenge of 0.5×10^5 Candida cells, prepared for injection as described above, followed by treatment at Day 0, Day 2 and Day 5 with a 0.1 mL volume of 10 mg/kg XMP.127, 5 mg/kg XMP.13, 5 mg/kg XMP.37, 1 mg/kg amphotericin B, or PBS as a control. […] In FIG. 5, the symbol “X” represents survival after treatment with amphotericin B; open circles, treatment with XMP.127; filled triangles, treatment with buffer; open squares, treatment with XMP.37; open triangles, treatment with XMP.13.
Further studies to determine the effectiveness of anti-fungal peptides were performed at an increased dosing regimen (6 doses rather than 3 doses as described above). Groups of 9 week-old male DBA/2J mice were inoculated with concentrations of 2.7×10^5 Candida cells (prepared as described above) by intravenous injection in the tail vein. Immediately after fungal challenge, the mice were treated with a 0.1 mL volume of 10 mg/kg XMP.284, 1 mg/kg amphotericin B or PBS as a control at Day 0, Day 2, Day 4, Day 7, Day 9 and Day 11. All amphotericin B-treated animals were protected.
Additional 6-dose experiments were conducted as described above, using inocula of 0.5-3.0×10^5 Candida cells and using 0.01, 0.05, 0.1, 0.5, 1.0 or 5.0 mg/kg doses of peptide.

[5] = test system: Aspergillus niger ATCC 16404; experiment: microbe, parasite or virus in culture; type: cell-based; details: Aspergillus niger, ATCC16404; read-out: Minimum Fungicidal Concentration, Aspergillus niger ATCC 16404
Procedure: (§4) The anti-fungal activity of Domain III derived peptides was evaluated against a variety of fungal species, including species of Candida. Cryptococcus, Fusarium, Trichophyton, and Aspergillus, by an additional assay protocol utilizing Alamar Blue. Alamar Blue is an indicator dye formulated to measure quantitatively the proliferation of a variety of human or animal cells, bacteria, or fungi. It consists of an oxidation-reduction (REDOX) indicator that yields a colorimetric change in response to metabolic activity. For these experiments, species of Candida and Cryptococcus were grown in Sabouraud's dextrose broth (SDB) overnight. Strains of filamentous fungi (Aspergilius, Fusanum, Trichophyton) were obtained by irrigation of a confluent culture from a petri dish. Cells were washed and adjusted to a concentration of 5.0×10^3/mL in fresh SDB. […] Controls included amphotericin B, fluconazole, ketoconazole and griseofulvin. Antifungal drugs were also diluted in the same manner. Assays were performed in 96-well microuiter plates. […] The wells to be plated were determined by OD590 readings. The lowest concentration of peptide which maintained the blue color (or OD reading) of the blank was chosen along with the next two higher concentrations. Plates were allowed to grow for 18-48 hours depending on the rate of growth of each fungus. Minimal fungicidal activity (MFC) was determined as a 99.9% killing of the starting inoculum.

[6] = test system: Candida albicans (SLU-1 and ATCC strains); experiment: microbe, parasite or virus in culture; type: cell-based; details: Candida albicans
Procedure: as §4

[7] = test system: Candida glabrata ATCC 2001; experiment: microbe, parasite or virus in culture; type: cell-based; details: Nakaseomyces glabratus, ATCC2001; read-out: Minimum Fungicidal Concentration, Candida glabrata ATCC 2001
Procedure: as §4

[8] = test system: Candida parapsilosis ATCC 22019; experiment: microbe, parasite or virus in culture; type: cell-based; details: Lodderomyces parapsilosis, ATCC22019; read-out: Minimum Fungicidal Concentration, Candida parapsilosis ATCC 22019
Procedure: as §4

[9] = test system: Fusarium solani ATCC 36031; experiment: microbe, parasite or virus in culture; type: cell-based; details: Fusarium solani, ATCC36031; read-out: Minimum Fungicidal Concentration, Fusarium solani ATCC 36031
Procedure: as §4

Molecule | C. albicans pmol/30 mm^2 zone [1] | C. albicans pmol/30 mm^2 zone ([1]; listed as XMP.337P′) | Anti-fungal activity: pmol/30 mm^2 zone, Candida albicans (Candida albicans) | Anti-fungal activity: pmol/30 mm^2 zone, Candida glabrata (Candida glabrata) | Anti-fungal activity: pmol/30 mm^2 zone, Candida krusei (Candida krusei) | Anti-fungal activity: pmol/30 mm^2 zone, Candida lusitaniae (Candida lusitaniae) | Anti-fungal activity: pmol/30 mm^2 zone, Candida parapsilosis (Candida parapsilosis) | Anti-fungal activity: pmol/30 mm^2 zone, Candida tropicalis (Candida tropicalis) | Activity in Serum t ½ (hr.) [2] | Fungicidal activity on resistant strains [3] | mice survived until Day 28 [4] [%] | MFC [5] [µg/mL] | MFC ([6]; ATCC10231, strain ATCC 10231, read-out: Minimum Fungicidal Concentration, Candida albicans ATCC 10231) [µg/mL] | MFC ([6]; ATCC18840, strain ATCC 18840, read-out: Minimum Fungicidal Concentration, Candida albicans ATCC 18840) [µg/mL] | MFC ([6]; ATCC26555, strain ATCC 26555, read-out: Minimum Fungicidal Concentration, Candida albicans ATCC 26555) [µg/mL] | MFC ([6]; ATCC44808, strain ATCC 44808, read-out: Minimum Fungicidal Concentration, Candida albicans ATCC 44808) [µg/mL] | MFC ([6]; ATCC90028, strain ATCC 90028, read-out: Minimum Fungicidal Concentration, Candida albicans ATCC 90028) [µg/mL] | MFC [7] [µg/mL] | MFC [8] [µg/mL] | MFC [9] [µg/mL]
H-HHWLIQLHH-NH2 [XMP.337] | b (No detectable activity up to 5 μg/well) | >3,350 pmol/30 mm^2 zone | b (No detectable activity up to 5 μg/well) | b (No detectable activity up to 5 μg/well) | 5,339 pmol/30 mm^2 zone | 6,928 pmol/30 mm^2 zone | b (No detectable activity up to 5 μg/well) | b (No detectable activity up to 5 μg/well) | inactive |  |  |  |  |  |  |  |  |  |  | 
H-KSKVGALIQLFHKK-NH2 [XMP.36] | 197 pmol/30 mm^2 zone and 231 pmol/30 mm^2 zone |  |  |  |  |  |  |  |  | not reduced | 33 |  |  |  |  |  |  |  |  | 
H-KSKVGVLIQLFHKK-NH2 [XMP.166] | 171 pmol/30 mm^2 zone |  | >3,079 pmol/30 mm^2 zone | 2,100 pmol/30 mm^2 zone | 3,240 pmol/30 mm^2 zone | 1,133 pmol/30 mm^2 zone | 1,199 pmol/30 mm^2 zone | 864 pmol/30 mm^2 zone |  | not reduced |  |  |  |  |  |  |  |  |  | 
CC(=O)N1CCN(c2ccc(OCC3COC(Cn4ccnc4)(c4ccc(Cl)cc4Cl)O3)cc2)CC1 (centres unmarked) [Ketoconazole, ketoconazole] |  |  |  |  |  |  |  |  |  |  |  | > 10 | > 10 | > 10 | > 10 | > 10 | > 10 | > 10 | 5 (≈ 9.41 µM) | > 10
